Assay results as given in article PMC6979384, “Characterization of the plant homeodomain (PHD) reader family for their histone tail interactions” (Epigenetics & Chromatin, 2020).

How the values were obtained:
Assay in all cases: Histone peptide microarray
Format in all cases: binding, human
KDM5A (3) = settings: KDM5A (3), GST-tagged; arrays performed twice, n of 4
Text: (§1) To more comprehensively define the histone interactions of the 31 PHD readers identified from the domain microarray analyses, we probed each on an alternate microarray platform containing a library of 293 synthetic histone peptides with single or combinatorial PTMs (Additional file 2: Figure S4 and Additional file 3: Table S2).
(§2) The 31 GST-tagged PHD readers identified in the PHD finger domain array were expressed and purified as previously. Histone peptide arrays and peptide pulldown assays were conducted as recently described (specifically, the optimized protocol from Petell et al. for the former).
(§3) Supplementary file 13072_2020_328_MOESM3_ESM.xlsx: Additional file 3: Table S2. […] Excel Tab Peptide List is a compiled list of the entire 293 histone peptide library with amino acid sequence ranges. […] Each number corresponds to the peptide number designated in Peptide List. Excel Tab Average Signals is a compiled set of binding data: chromatin reader at 0.5 μM vs. entire 293 peptide library. Data is presented as the average and standard deviation of 4 replicates. The average signals are colored to indicate signal intensity with green being strong and white being weak/low. […] Key: red= stronger relative binding; blue = weaker relative binding. Excel Tab Array info summary is a table summarizing the domains, sequence coverage, array signal range, and noise for each of the GST-tagged readers assayed on the peptide microarrays.

BAZ2B = settings: BAZ2B, GST-tagged; arrays performed twice, n of 4
Text: as §1, §2, §3

PHF21A = settings: PHF21A, GST-tagged; arrays performed twice, n of 4
Text: as §1, §2, §3

ING4 = settings: ING4, GST-tagged; arrays performed twice, n of 4
Text: as §1, §2, §3

KDM4C (TTP) = settings: KDM4C (TTP), GST-tagged; arrays performed twice, n of 4
Text: as §1, §2, §3

MLL5 = settings: MLL5, GST-tagged; arrays performed twice, n of 4
Text: as §1, §2, §3

KDM5A (1) = settings: KDM5A (1), GST-tagged; arrays performed twice, n of 4
Text: as §1, §2, §3

BPTF (PB) = settings: BPTF (PB), GST-tagged; arrays performed twice, n of 4
Text: as §1, §2, §3

TRIM66 (PB) = settings: TRIM66 (PB), GST-tagged; arrays performed twice, n of 4
Text: as §1, §2, §3

RAG2 = settings: RAG2, GST-tagged; arrays performed twice, n of 4
Text: as §1, §2, §3

ING2 = settings: ING2, GST-tagged; arrays performed twice, n of 4
Text: as §1, §2, §3

ING1 = settings: ING1, GST-tagged; arrays performed twice, n of 4
Text: as §1, §2, §3

CHD5 (PCC) = settings: CHD5 (PCC), GST-tagged; arrays performed twice, n of 4
Text: as §1, §2, §3

CHD4 (PPCC) = settings: CHD4 (PPCC), GST-tagged; arrays performed twice, n of 4
Text: as §1, §2, §3

AIRE (PP) = settings: AIRE (PP), GST-tagged; arrays performed twice, n of 4
Text: as §1, §2, §3

SP140L = settings: SP140L, GST-tagged; arrays performed twice, n of 4
Text: as §1, §2, §3

KDM7A = settings: KDM7A, GST-tagged; arrays performed twice, n of 4
Text: as §1, §2, §3

MORC3 (CW) = settings: MORC3 (CW), GST-tagged; arrays performed twice, n of 4
Text: as §1, §2, §3

PHF2 = settings: PHF2, GST-tagged; arrays performed twice, n of 4
Text: as §1, §2, §3

ING3 = settings: ING3, GST-tagged; arrays performed twice, n of 4
Text: as §1, §2, §3

KDM5B (3) = settings: KDM5B (3), GST-tagged; arrays performed twice, n of 4
Text: as §1, §2, §3

DPF2 (PPC2W2) = settings: DPF2 (PPC2W2), GST-tagged; arrays performed twice, n of 4
Text: as §1, §2, §3

CHD5 (PPCC) = settings: CHD5 (PPCC), GST-tagged; arrays performed twice, n of 4
Text: as §1, §2, §3

PHF13 = settings: PHF13, GST-tagged; arrays performed twice, n of 4
Text: as §1, §2, §3

ING5 = settings: ING5, GST-tagged; arrays performed twice, n of 4
Text: as §1, §2, §3

PHRF1 (RP) = settings: PHRF1 (RP), GST-tagged; arrays performed twice, n of 4
Text: as §1, §2, §3

DIDO1 = settings: DIDO1, GST-tagged; arrays performed twice, n of 4
Text: as §1, §2, §3

PHF8 = settings: PHF8, GST-tagged; arrays performed twice, n of 4
Text: as §1, §2, §3

TAF3 = settings: TAF3, GST-tagged; arrays performed twice, n of 4
Text: as §1, §2, §3

PHF23 = settings: PHF23, GST-tagged; arrays performed twice, n of 4
Text: as §1, §2, §3

## H4K5me1 + K8ac + K12me1: H4 1-23
KDM5A (3)
  Array Heatmap value (peptide array binding signal): 0.4387
BAZ2B
  Array Heatmap value (peptide array binding signal): 0.4974
PHF21A
  Array Heatmap value (peptide array binding signal): 0.4816
ING4
  Array Heatmap value (peptide array binding signal): 0.4694
KDM4C (TTP)
  Array Heatmap value (peptide array binding signal): 0.4942
MLL5
  Array Heatmap value (peptide array binding signal): 0.5981
KDM5A (1)
  Array Heatmap value (peptide array binding signal): 0.4746
BPTF (PB)
  Array Heatmap value (peptide array binding signal): 0.368
TRIM66 (PB)
  Array Heatmap value (peptide array binding signal): 0.6387
RAG2
  Array Heatmap value (peptide array binding signal): 0.2728
ING2
  Array Heatmap value (peptide array binding signal): 0.626
ING1
  Array Heatmap value (peptide array binding signal): 0.5678
CHD5 (PCC)
  Array Heatmap value (peptide array binding signal): 0.7798
CHD4 (PPCC)
  Array Heatmap value (peptide array binding signal): 0.6142
AIRE (PP)
  Array Heatmap value (peptide array binding signal): 0.4591
SP140L
  Array Heatmap value (peptide array binding signal): 0.3553
KDM7A
  Array Heatmap value (peptide array binding signal): 0.3765
MORC3 (CW)
  Array Heatmap value (peptide array binding signal): 0.3838
PHF2
  Array Heatmap value (peptide array binding signal): 0.5535
ING3
  Array Heatmap value (peptide array binding signal): 0.4924
KDM5B (3)
  Array Heatmap value (peptide array binding signal): 0.5017
DPF2 (PPC2W2)
  Array Heatmap value (peptide array binding signal): 0.687
CHD5 (PPCC)
  Array Heatmap value (peptide array binding signal): 0.5643
PHF13
  Array Heatmap value (peptide array binding signal): 0.6435
ING5
  Array Heatmap value (peptide array binding signal): 0.3748
PHRF1 (RP)
  Array Heatmap value (peptide array binding signal): 0.4574
DIDO1
  Array Heatmap value (peptide array binding signal): 0.8611
PHF8
  Array Heatmap value (peptide array binding signal): 0.3528
TAF3
  Array Heatmap value (peptide array binding signal): 0.2843
PHF23
  Array Heatmap value (peptide array binding signal): 0.5681

## H4K5ac + K16ac: H4 1-23
KDM5A (3)
  Array Heatmap value (peptide array binding signal): 0.4193
BAZ2B
  Array Heatmap value (peptide array binding signal): 0.4504
PHF21A
  Array Heatmap value (peptide array binding signal): 0.4348
ING4
  Array Heatmap value (peptide array binding signal): 0.4436
KDM4C (TTP)
  Array Heatmap value (peptide array binding signal): 0.5082
MLL5
  Array Heatmap value (peptide array binding signal): 0.5139
KDM5A (1)
  Array Heatmap value (peptide array binding signal): 0.4676
BPTF (PB)
  Array Heatmap value (peptide array binding signal): 0.3372
TRIM66 (PB)
  Array Heatmap value (peptide array binding signal): 0.5396
RAG2
  Array Heatmap value (peptide array binding signal): 0.2387
ING2
  Array Heatmap value (peptide array binding signal): 0.5823
ING1
  Array Heatmap value (peptide array binding signal): 0.5084
CHD5 (PCC)
  Array Heatmap value (peptide array binding signal): 0.7385
CHD4 (PPCC)
  Array Heatmap value (peptide array binding signal): 0.5383
AIRE (PP)
  Array Heatmap value (peptide array binding signal): 0.4583
SP140L
  Array Heatmap value (peptide array binding signal): 0.3592
KDM7A
  Array Heatmap value (peptide array binding signal): 0.3523
MORC3 (CW)
  Array Heatmap value (peptide array binding signal): 0.3384
PHF2
  Array Heatmap value (peptide array binding signal): 0.425
ING3
  Array Heatmap value (peptide array binding signal): 0.4411
KDM5B (3)
  Array Heatmap value (peptide array binding signal): 0.4611
DPF2 (PPC2W2)
  Array Heatmap value (peptide array binding signal): 0.6547
CHD5 (PPCC)
  Array Heatmap value (peptide array binding signal): 0.5427
PHF13
  Array Heatmap value (peptide array binding signal): 0.5774
ING5
  Array Heatmap value (peptide array binding signal): 0.3563
PHRF1 (RP)
  Array Heatmap value (peptide array binding signal): 0.4298
DIDO1
  Array Heatmap value (peptide array binding signal): 0.6124
PHF8
  Array Heatmap value (peptide array binding signal): 0.3305
TAF3
  Array Heatmap value (peptide array binding signal): 0.2655
PHF23
  Array Heatmap value (peptide array binding signal): 0.509

## H4K16ac + K20ac: H4 1-23
KDM5A (3)
  Array Heatmap value (peptide array binding signal): 0.425
BAZ2B
  Array Heatmap value (peptide array binding signal): 0.4551
PHF21A
  Array Heatmap value (peptide array binding signal): 0.4767
ING4
  Array Heatmap value (peptide array binding signal): 0.47
KDM4C (TTP)
  Array Heatmap value (peptide array binding signal): 0.4892
MLL5
  Array Heatmap value (peptide array binding signal): 0.5457
KDM5A (1)
  Array Heatmap value (peptide array binding signal): 0.4687
BPTF (PB)
  Array Heatmap value (peptide array binding signal): 0.3565
TRIM66 (PB)
  Array Heatmap value (peptide array binding signal): 0.6284
RAG2
  Array Heatmap value (peptide array binding signal): 0.2369
ING2
  Array Heatmap value (peptide array binding signal): 0.5955
ING1
  Array Heatmap value (peptide array binding signal): 0.529
CHD5 (PCC)
  Array Heatmap value (peptide array binding signal): 0.7957
CHD4 (PPCC)
  Array Heatmap value (peptide array binding signal): 0.5676
AIRE (PP)
  Array Heatmap value (peptide array binding signal): 0.5176
SP140L
  Array Heatmap value (peptide array binding signal): 0.3563
KDM7A
  Array Heatmap value (peptide array binding signal): 0.3784
MORC3 (CW)
  Array Heatmap value (peptide array binding signal): 0.3738
PHF2
  Array Heatmap value (peptide array binding signal): 0.4717
ING3
  Array Heatmap value (peptide array binding signal): 0.4609
KDM5B (3)
  Array Heatmap value (peptide array binding signal): 0.4989
DPF2 (PPC2W2)
  Array Heatmap value (peptide array binding signal): 0.6637
CHD5 (PPCC)
  Array Heatmap value (peptide array binding signal): 0.5492
PHF13
  Array Heatmap value (peptide array binding signal): 0.6126
ING5
  Array Heatmap value (peptide array binding signal): 0.3611
PHRF1 (RP)
  Array Heatmap value (peptide array binding signal): 0.4351
DIDO1
  Array Heatmap value (peptide array binding signal): 0.6429
PHF8
  Array Heatmap value (peptide array binding signal): 0.3492
TAF3
  Array Heatmap value (peptide array binding signal): 0.2987
PHF23
  Array Heatmap value (peptide array binding signal): 0.5182

## H4K8ac + K12ac + K16ac: H4 1-23
KDM5A (3)
  Array Heatmap value (peptide array binding signal): 0.5089
BAZ2B
  Array Heatmap value (peptide array binding signal): 0.4965
PHF21A
  Array Heatmap value (peptide array binding signal): 0.5044
ING4
  Array Heatmap value (peptide array binding signal): 0.4992
KDM4C (TTP)
  Array Heatmap value (peptide array binding signal): 0.5459
MLL5
  Array Heatmap value (peptide array binding signal): 0.5342
KDM5A (1)
  Array Heatmap value (peptide array binding signal): 0.498
BPTF (PB)
  Array Heatmap value (peptide array binding signal): 0.384
TRIM66 (PB)
  Array Heatmap value (peptide array binding signal): 0.6251
RAG2
  Array Heatmap value (peptide array binding signal): 0.271
ING2
  Array Heatmap value (peptide array binding signal): 0.6214
ING1
  Array Heatmap value (peptide array binding signal): 0.5851
CHD5 (PCC)
  Array Heatmap value (peptide array binding signal): 0.7879
CHD4 (PPCC)
  Array Heatmap value (peptide array binding signal): 0.6125
AIRE (PP)
  Array Heatmap value (peptide array binding signal): 0.4841
SP140L
  Array Heatmap value (peptide array binding signal): 0.383
KDM7A
  Array Heatmap value (peptide array binding signal): 0.4096
MORC3 (CW)
  Array Heatmap value (peptide array binding signal): 0.3996
PHF2
  Array Heatmap value (peptide array binding signal): 0.546
ING3
  Array Heatmap value (peptide array binding signal): 0.5255
KDM5B (3)
  Array Heatmap value (peptide array binding signal): 0.4821
DPF2 (PPC2W2)
  Array Heatmap value (peptide array binding signal): 0.6365
CHD5 (PPCC)
  Array Heatmap value (peptide array binding signal): 0.614
PHF13
  Array Heatmap value (peptide array binding signal): 0.6695
ING5
  Array Heatmap value (peptide array binding signal): 0.3961
PHRF1 (RP)
  Array Heatmap value (peptide array binding signal): 0.4693
DIDO1
  Array Heatmap value (peptide array binding signal): 0.7526
PHF8
  Array Heatmap value (peptide array binding signal): 0.3768
TAF3
  Array Heatmap value (peptide array binding signal): 0.2999
PHF23
  Array Heatmap value (peptide array binding signal): 0.5595
